Test results taken from patent US8367873B2, “Phenyl-substituted bicyclooctane-1,3-dione derivatives” (Bayer Cropscience AG, priority 2008, dated 2013).

Legend:
Type in all cases: in vivo
[1] = tested on: Alopecurus myosuroides; experiment: Herbicidal pre-emergence action; conditions: pre-emergence method, 80 g/ha, greenhouse, visual assessment vs untreated controls
In short: (§1)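 Visual percent damage score (100% = dead plants, 0% = as untreated control) taken three weeks after pre-emergence treatment. Compounds were wettable powders sprayed onto covering soil over seeds in sandy loam, 600 l/ha water with 0.2% wetting agent, several application amounts; pots kept in greenhouse.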

[2] = tested on: Setaria viridis; experiment: Herbicidal pre-emergence action; conditions: pre-emergence method, 80 g/ha, greenhouse, visual assessment vs untreated controls
In short: as §1

[3] = tested on: Echinocloa crus-galli; experiment: Herbicidal pre-emergence action; conditions: pre-emergence method, 80 g/ha, greenhouse, visual assessment vs untreated controls
In short: as §1

[4] = tested on: Lolium multiflorum; experiment: Herbicidal pre-emergence action; conditions: pre-emergence method, 80 g/ha, greenhouse, visual assessment vs untreated controls
In short: as §1

[5] = tested on: monocotylidonous and dicotylidonous weed and crop plants; experiment: Herbicidal post-emergence action (other test plants); conditions: post-emergence method, 80 g/ha
In short: (§2)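 Greenhouse plants in sandy loam sprayed at the one-leaf stage, 2-3 weeks after sowing, with WP-formulated compound at varied rates in 600 l/ha water plus 0.2% wetting agent. Damage scored visually after about three weeks as percent effect versus untreated controls (100% = dead).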

[6] = tested on: monocotylidonous and dicotylidonous weed and crop plants; experiment: Herbicidal pre-emergence action (other test plants); conditions: pre-emergence method, 80 g/ha, greenhouse, visual assessment vs untreated controls
In short: as §1

[7] = tested on: Alopecurus myosuroides; experiment: Herbicidal post-emergence action; conditions: post-emergence method, 80 g/ha
In short: as §2

[8] = tested on: Setaria viridis; experiment: Herbicidal post-emergence action; conditions: post-emergence method, 80 g/ha
In short: as §2

[9] = tested on: Echinocloa crus-galli; experiment: Herbicidal post-emergence action; conditions: post-emergence method, 80 g/ha
In short: as §2

[10] = tested on: Lolium multiflorum; experiment: Herbicidal post-emergence action; conditions: post-emergence method, 80 g/ha
In short: as §2

SMILES	herbicidal effect ALOMY [1]	herbicidal effect SETVI [2]	herbicidal effect ECHCG [3]	herbicidal effect LOLMU [4]	herbicidal effect against AVEFA (Avena fatua) [5]	herbicidal effect AVEFA [6]	herbicidal effect against ALOMY (Alopecurus myosuroides) [7]	herbicidal effect against SETVI (Setaria viridis) [8]	herbicidal effect against ECHCG (Echinochloa crus-galli) [9]	herbicidal effect against LOLMU (Lolium multiflorum) [10]
CCOC(=O)OC1=C(c2c(C)cc(C)cc2CC)C(=O)C2CC3(CC12)OCC=CCO3 (racemic) [I-c-72]	60%	80%	100%	100%	70%	50%	100%	100%	100%	100%
CCc1cc(C)cc(C)c1C1=C(OC(=O)OC)C2CC3(CC2C1=O)OCC=CCO3 (racemic) [I-c-73]	70%	60%	50%	100%	0%	40%	100%	100%	100%	100%
CCc1cc(C)cc(C)c1C1=C(OC(=O)OC(C)C)C2CC3(CC2C1=O)OCC=CCO3 (racemic) [I-c-74]	70%	100%	100%	100%	70%	60%	60%	100%	100%	100%
CCOC(=O)OC1=C(c2c(C)cc(C)cc2CC)C(=O)C2CC3(CC12)OCCCCO3 (racemic) [I-c-75]	70%	60%	100%	100%	50%	60%	60%	100%	100%	100%
C=C1CC2C(=O)C(c3c(C)cc(C)cc3CC)=C(OC(=O)OCC)C2C1 (racemic) [I-c-76]	80%	90%	100%	90%	0%	20%	10%	100%	100%	90%
C=C1CC2C(=O)C(c3c(C)cc(C)cc3CC)=C(OC(=O)OC)C2C1 (racemic) [I-c-77]	80%	100%	80%	90%	0%	80%	0%	90%	100%	90%
CCc1cc(C)cc(CC)c1C1=C(O)[C@H]2CC3(C[C@H]2C1=O)OCC(C)(C)CO3 (relative stereo) [I-a-9]	90%	90%	100%	100%	60%	70%	60%	90%	100%	90%
CCc1cc(C)cc(CC)c1C1=C(O)[C@H]2CC3(C[C@H]2C1=O)OC(C)(C)C(C)(C)O3 (relative stereo) [I-a-19]	90%	20%	0%	100%	0%	20%	80%	50%	90%	100%
CCc1cc(C)cc(CC)c1C1=C(O)[C@H]2CC3(C[C@H]2C1=O)OCC(OC)CO3 (relative stereo) [I-a-26]	100%	100%	100%	100%	100%	70%	100%	100%	100%	100%
CCc1cc(C)cc(CC)c1C1=C(O)[C@H]2CC3(C[C@H]2C1=O)OCC(OCc1ccccc1)CO3 (relative stereo) [I-a-27]	90%	90%	100%	100%	100%	80%	100%	90%	100%	100%
CCOC1COC2(C[C@@H]3C(O)=C(c4c(CC)cc(C)cc4CC)C(=O)[C@@H]3C2)OC1 (relative stereo) [I-a-28]	100%	90%	100%	100%	100%	80%	100%	100%	100%	100%
CCc1cc(C)cc(CC)c1C1=C(O)[C@H]2CC(=NOCC3CC3)C[C@H]2C1=O (relative stereo) [I-a-31]	80%	90%	100%	100%	80%	40%	100%	100%	100%	100%
C#CC(C)ON=C1C[C@@H]2C(O)=C(c3c(CC)cc(C)cc3CC)C(=O)[C@@H]2C1 (relative stereo) [I-a-32]	90%	20%	40%	100%	0%	60%	80%	20%	100%	100%
C=C1C[C@@H]2C(O)=C(c3c(C)cc(C)cc3C)C(=O)[C@@H]2C1 (relative stereo) [I-a-36]	60%	80%	80%	90%	0%	70%	50%	90%	90%	90%
Cc1cc(C)c(C2=C(O)[C@H]3CC4(C[C@H]3C2=O)OCC(C)CO4)c(C)c1 (relative stereo) [I-a-38]	100%	90%	40%	100%	90%	40%	100%	90%	80%	100%
CCc1cc(C)cc(CC)c1C1=C(OC(=O)OC)[C@H]2C[C@]3(COC(C)(C)O3)C[C@H]2C1=O (relative stereo) [I-c-4]	90%	50%	60%	90%	90%	80%	90%	0%	100%	100%
CCOC(=O)OC1=C(c2c(CC)cc(C)cc2CC)C(=O)[C@@H]2CC3(C[C@H]12)OCC=CCO3 (relative stereo) [I-c-11]	90%	90%	100%	90%	80%	70%	80%	90%	100%	90%
